{"source": "patent US10976310B2", "about": "“Ligand identification by co-fractionation” (MAX-PLANCK-GESELLSCHAFT ZUR FÖRDERUNG DER WISSENSCHAFTEN …, priority 2016, dated 2021)", "origin": "cited, not measured here", "target": "T1, PYR1 receptor (Arabidopsis thaliana, UniProt O49686)", "T1 sequence (O49686 1-191)": "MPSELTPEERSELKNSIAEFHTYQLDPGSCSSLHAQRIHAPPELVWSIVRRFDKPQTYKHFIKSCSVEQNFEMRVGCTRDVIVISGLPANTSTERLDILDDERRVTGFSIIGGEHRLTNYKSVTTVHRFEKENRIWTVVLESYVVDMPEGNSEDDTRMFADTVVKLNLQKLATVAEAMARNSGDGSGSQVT", "conditions": "Dupeux et al. (2011); read-out: Kd of binding to PYR1; cited from earlier work", "note": "pKd: −log10 of the molar value.", "data": [{"smiles": "CC1=CC(=O)CC(C)(C)[C@@]1(O)/C=C/C(C)=C\\C(=O)O", "note": "[abscisic acid]", "values": [{"measurement": "pKd", "result": 4.01}]}]}
